According to publication PMC10291556 (Journal of Medicinal Chemistry, 2023):

How the values were obtained:
[1] = tested on: HeLa cells / Thp-1/PMA macrophages; assay: Phagocytosis of treated HeLa cells by Thp-1/PMA macrophages; format: cell-based, human; conditions: HeLa treated 24 h at 1× or 3× IC50,72h, co-incubated 2.5 h with Thp-1/PMA macrophages
Procedure: Figure 8 Hallmarks of ICD. (A) Extracellular ATP levels in HeLa cell supernatants. […] (B) Extracellular level of HMGB1. […] (C) Calreticulin exposure to the cell surface. […] The surface calreticulin exposure was determined in 4′,6-diamidino-2-phenylindole dihydrochloride (DAPI)-negative cell population. Relative fluorescence intensity was calculated as the median fluorescence of the population of treated cells/median fluorescence of untreated control cells. The data in panels A, B, and C are shown as a mean of 4–5 measurements ± SD. Statistical significance from untreated control was determined with the Student t-test (*p ≤ 0.05, **p ≤ 0.01, and ^#p ≤ 0.001). (D) Quantitative evaluation of phagocytosis of HeLa cells treated with the investigated compounds by human Thp-1/PMA macrophages (analyzed by flow cytometry). […] Error bars are the SEMs calculated from three independent experiments. The stars denote a significant difference from untreated control (*p ≤ 0.05, **p ≤ 0.01) as calculated by the […] Student t-test. […]
Human monocytic leukemia cells Thp-1 (obtained from American Type Culture Collection, ATCC) were differentiated into macrophages with phorbol 12-myristate 13-acetate (PMA, 100 nM) for 24 h. […] Phagocytosis was evaluated using flow cytometry (BD FACSVerse), and data were analyzed with FCS Express 7 (DeNovo software; Glendale, CA). […]

HeLa cells [2] = assay: Calreticulin exposure (flow cytometry); format: cell-based, human; conditions: 3× IC50, 16–18 h, DAPI-negative cells
Procedure: Following the treatment, the cells were harvested (trypsin), washed with FACS buffer (PBS, BSA 1%, and FBS 2%), and incubated with Alexa Fluor 488 Anti-Calreticulin antibody for 40 min at 4 °C. The buffer was removed (CFG, 300 g, 3 min) and replaced with FACS buffer containing DAPI (1 μg mL^–1, 20 min), and the cells were analyzed with flow cytometry (BD FACS Verse) and FCS Express 6 (DeNovo Software, Glendale, CA). Calreticulin fluorescence histograms were analyzed in the DAPI-negative (intact membrane) cell population.

COX in HeLa cells = assay: COX activity assay (kit) in treated cells; format: cell-based, human; conditions: 24 h, 1× IC50,72h, vs untreated control
Procedure: The results are expressed relative to the COX activity of untreated control.
HeLa cells were seeded in 6-well plates at a density of 10^5 cells/well and incubated overnight. The cells were treated with the tested compounds at concentrations corresponding to 1× IC50. Following a 24 h treatment, the cells were lyzed with radioimmunoprecipitation assay (RIPA) buffer supplemented with proteinase inhibitors on ice for 10 min. The extracts were cleared with centrifugation (12,000g/5 min), and protein content was determined using Bradford assay. COX activity was determined with a COX Activity Assay Kit (Abcam). 6 μg of protein was used in the reaction. The experiment was set up according to the manufacturer’s instructions. The fluorescence (Ex/Em 535/587 nm) was read in a kinetic mode, and the COX inhibition was expressed as a percentage of the activity of the untreated control.

HeLa cells [3] = assay: ATP secretion; format: cell-based, human; conditions: 1× and 3× IC50, 24 h
Procedure: HeLa cells were seeded in 24-well plates at a density of 10^4 cells/well, grown overnight, and then treated with the tested complexes for 24 h. Aliquots of culture medium samples were withdrawn, centrifugated (500g, 3 min), and processed with ATP Bioluminescence Assay Kit CLS II, Roche. Briefly, 50 μL of cell-free medium samples were added to a 96-well flat white plate, and an equal volume of luciferase reagent was added. The luminescence was measured immediately on a plate reader (SPARK, Tecan). The blank (no ATP) was subtracted from the raw data. ATP concentrations were obtained from the standard curve and normalized to cell counts and control. The data are shown as MEAN of 4–5 independent measurements.

HeLa cells [4] = assay: HMGB1 release (ELISA); format: cell-based, human; conditions: 1×, 2×, 3× IC50, 20 h
Procedure: (B) Extracellular level of HMGB1. […] The data in panels A, B, and C are shown as a mean of 4–5 measurements ± SD. Statistical significance from untreated control was determined with the Student t-test (*p ≤ 0.05, **p ≤ 0.01, and ^#p ≤ 0.001).
HeLa cells were seeded in 24-well plates at a density of 10^4 cells/well and grown overnight. The medium was removed, and a fresh medium (DMEM, 1% BSA, no FBS) containing indicated concentrations of tested complexes was added (300 μL). Following a 20 h treatment, medium samples were withdrawn, and the HMGB1 content was determined using an HMGB1 ELISA Kit (IBL international) following the instructions for use. Cell counts in corresponding wells were determined using Automated Cell Counter (Bio-Rad). HMGB1 concentrations were normalized to cell counts and to the value of untreated control. The experiment was performed twice with duplicate readings.

HeLa cells [5] = assay: Mitochondrial membrane potential (TMRE, flow cytometry); format: cell-based, human; conditions: 10× IC50, 1 h, vs untreated control
Procedure: Figure 4 Changes in the mitochondrial membrane potential Δψm in HeLa cells. The cells were treated with Pt compounds at the concentrations corresponding to 10× IC50 for 1 h and subsequently stained with TMRE. The fluorescence was measured by flow cytometry. Data represents mean ± SD from three independent experiments, *p < 0.01.
HeLa cells were seeded (6-well plates, 3 × 10^5 cells/well), grown overnight, and then treated with the tested compounds for 1 h. The medium was removed, and a fresh medium containing TMRE (Thermo Fisher Scientific) at a final concentration of […] in 500 μL was added. The cells were incubated for 30 min at 37 °C and then harvested using trypsin. TMRE fluorescence was measured with a fluorescence-activated cell sorting (FACS) Verse flow cytometer (Becton Dickinson), and the data were analyzed using the ModFit LT 4.1 (Verity Software House) software. The experiment was performed in triplicate.

MRC-5 = assay: MTT assay in non-cancerous fibroblasts, 72 h; format: cell-based; conditions: non-cancerous human fibroblasts, 72 h incubation, mean ± SD
Procedure: Cells were treated with the tested compounds in a final volume of 200 μL/well. […] Calbiochem, Darmstadt, Germany) was added, and the cells were incubated for an additional 2–4 h. The medium was removed, and the insoluble formazan product was dissolved in 100 μL/well DMSO. […] The read values were converted to the percentage of control. […] All experiments were made in triplicate.

HCT-116 = assay: MTT antiproliferative assay, 72 h; format: cell-based, human; conditions: MTT, 72 h incubation, mean ± SD; read-out: IC50 HCT-116
Procedure: (§1) Cells were treated with the tested compounds in a final volume of 200 μL/well. […] Calbiochem, Darmstadt, Germany) was added, and the cells were incubated for an additional 2–4 h. The medium was removed, and the insoluble formazan product was dissolved in 100 μL/well DMSO. The absorbance was read at 570 nm (vs 620 nm) using an Absorbance Reader (SUNRISE TECAN SCHOELLER). The read values were converted to the percentage of control. […] All experiments were made in triplicate.

MDA-MB-231 = assay: MTT antiproliferative assay, 72 h; format: cell-based, human; conditions: MTT, 72 h incubation, mean ± SD; read-out: IC50 MDA-MB-231
Procedure: as §1

MCF-7 = assay: MTT antiproliferative assay, 72 h; format: cell-based, human; conditions: MTT, 72 h incubation, mean ± SD; read-out: IC50 MCF-7
Procedure: as §1

HeLa = assay: MTT antiproliferative assay, 72 h; format: cell-based, human; conditions: MTT, 72 h incubation, mean ± SD; read-out: IC50 HeLa
Procedure: as §1

[6] = tested on: DNA isolated from HeLa cells; assay: Pt associated with DNA isolated from treated HeLa cells; format: cell-based, human; conditions: 1 µM compound, 6 h, mean ± SD
Description: page 16: Table S1: […] concentration of tested compounds for 6 ha. […] Figure S19: A. Representative histograms obtained by flow cytometric analysis of calreticulin exposure in HeLa cells treated with indicated compounds. B. An example of gating DAPI negative population. Only DAPI-negative cells were taken for the evaluation.

HeLa cells [7] = assay: Cellular accumulation of platinum (ICP-MS); format: cell-based, human; conditions: for cellular uptake 0.1 μM/24 h: 0.1 μM complex; for cellular uptake 1 μM/6 h: 1 μM complex; for cellular uptake 10 μM/6 h: 10 μM complex
Procedure: Briefly, 3 × 10^6 cells were seeded in 100 mm culture dishes and grown overnight. The cells were exposed to the tested complexes at indicated concentrations for indicated periods. […] The pellets were digested using the microwave acid (HCl) digestion system (CEM Mars). The platinum quantity taken up by the cells was determined by inductively coupled plasma mass spectrometry (ICP–MS). All experiments were performed in triplicate.

A2780 = assay: MTT antiproliferative assay, 72 h; format: cell-based, human; conditions: MTT, 72 h incubation, mean ± SD; read-out: IC50 A2780
Procedure: as §1

A2780cisR = assay: MTT antiproliferative assay, 72 h; format: cell-based, human; conditions: MTT, 72 h incubation, mean ± SD; read-out: IC50 A2780cisR
Procedure: as §1

HeLa cells [8] = assay: Wound healing assay; format: cell-based, human; conditions: 24 h, multiples of IC50,72h
Procedure: Figure 7 (A–E) Wound healing assay. The monolayer of HeLa cells was scratched with a 10 μL tip, and a starving medium containing the tested complexes was added. The shots were taken at times 0 and 24 h. (A) Control, non-treated cells; (B) cells treated with complex 3; (C) cells treated with complex 4. […] (E) Evaluation of wound healing assay. Bars represent gap size vs. Control (100%), following a 24 h incubation with the investigated compounds. Light gray bars: complex 3; dark gray bars: complex 4; black bar: complex 2. (F) Re-adhesion assay. […] Following trypsinization, the cells were resuspended in Dulbecco’s modified Eagle medium (DMEM), counted, left to reconstitute adhesive membrane proteins for 30 min, and re-seeded at the density of 3× 10^4 cells/100 μL/well. After 30 min of incubation at 37 °C, the re-adhesion activity was determined as described in the Experimental Section. Data represents mean ± SD, n = 8; *p < 0.05, **p < 0.01, ***p < 0.001.
HeLa cells were grown close to confluence in 6-well plates in a complete medium, and then the medium was replaced with a serum-free medium [supplemented with 0.1% bovine serum albumin (BSA)], and the cells were incubated for an additional 24 h. The HeLa monolayers were scratched with a 10 μL pipet tip, and the cells were washed twice with PBS to remove peeled cells and treated with tested compounds at indicated concentrations. The scratched areas were shot immediately after the complex addition and then after 24 h with a Canon EOS 1200D camera attached to an Olympus CKX41 inverted microscope with a 10×/0.25 phase contrast objective. Digital images were taken by the QuickPHOTO MICRO 3.1 program (PROMICRA, Prague, Czech Republic) and processed with the TScratch analysis software (ETH Zürich, Switzerland). The cell’s ability to migrate into the open area was expressed as a percentage of control.

[9] = Partition coefficient, shake-flask method; format: physicochemical; conditions: octanol/water
Procedure: The “shake flask” method was used to measure the partition coefficients (P) of platinum compounds. The compounds were dissolved in octanol-saturated water (OSW) containing 200 mM NaCl. […] After careful separation of the layers with a fine-tip pipet, the Pt content in individual phases was determined by flameless atomic absorption spectrometry. The partition coefficients were calculated as the concentration ratio of the compound in the octanol layer to that in the aqueous layer, log P = log([Pt]WSO/[Pt]OSW).

COX-2 in HeLa cells = assay: Western blotting of COX-2; format: cell-based, human; conditions: 24 h, 1×, 3× IC50, Western blot
Procedure: (B) Quantitative evaluation of Western blotting data; the relative expression of COX-2 normalized to GAPDH. Data represents the mean ± SD of two experiments. The stars indicate the statistical significance of difference vs control determined with the Student t-test (*p < 0.05, **p < 0.01, ***p < 0.001).
HeLa cells were seeded in 60 mm dishes at a density of 3 × 10^5 cells/dish and cultured for 20 h. The cells were then treated with the tested compounds at concentrations indicated in the text. After 24 h of treatment, the cells were scraped, washed, and pelleted. […] 4–20% SDS-PAGE (sodium dodecyl sulfate-polyacrylamide gel electrophoresis) (Mini-PROTEAN TGX Precast Gel) was used to resolve the proteins. After transferring to the polyvinylidene fluoride membrane, the proteins were detected using appropriate antibodies: anti-GAPDH antibody (mouse, Sigma-Aldrich), Anti-COX-2 (rabbit, Abcam), Anti-α-, β-, or γ-tubulin (all rabbit, Abcam), Anti-β-actin (mouse, Abcam), Goat Anti-Rabbit IgG(HRP) (Abcam; HRP = horseradish peroxidase), and Goat Anti-Mouse IgG(HRP) (ThermoFisher Scientific). SignalFire ECL Reagent (A + B) was used as a substrate for HRP, and the luminescence was recorded with Amersham Imager 680. The densities in the images were assessed with the Aida image analysis software.

SMILES	increase of tumor-cell phagocytosis [1]	externalization of calreticulin (HeLa cells [2])	inhibition of COX activity (COX in HeLa cells)	ATP secretion (HeLa cells [3])	HMGB1 secretion (HeLa cells [4])	mitochondrial membrane potential Δψm (TMRE fluorescence) (HeLa cells [5])	IC50 (MRC-5)	IC50 (HCT-116)	IC50 (MDA-MB-231)	IC50 (MCF-7)	IC50 (HeLa)	amount of Pt associated with DNA [6]	cellular uptake 0.1 μM/24 h (HeLa cells [7])	cellular uptake 1 μM/6 h (HeLa cells [7])	cellular uptake 10 μM/6 h (HeLa cells [7])	IC50 (A2780)	IC50 (A2780cisR)	migration activity (wound closing) (HeLa cells [8])	log P [9]	intracellular level of COX-2 protein (COX-2 in HeLa cells)
COc1cccc2c1C(=O)c1c(O)c3c(c(O)c1C2=O)C[C@@](O)(C(=O)CO)C[C@@H]3O[C@H]1C[C@H](N)[C@H](O)[C@H](C)O1 [doxorubicin, reference compound]	slightly less pronounced levels of phagocytosis	–	–	–	–	–	–	–	–	–	–	–	–	–	–	–	–	–	–	–
NCCNC(=O)Cc1ccccc1Nc1c(Cl)cccc1Cl [enDCF, diclofenac amide]	–	effective as well	Inhibition of COX activity was also observed	effective as well	effective as well	The same effect	58 ± 6 µM	27 ± 4 µM	32 ± 3 µM	37 ± 4 µM	30 ± 2 µM	–	–	–	–	–	–	–	–	–
N.N.[Cl][Pt][Cl] [cisplatin, reference compound]	–	–	–	–	–	–	7.3 ± 0.9 µM	8 ± 1 µM	22 ± 2 µM	14 ± 3 µM	15 ± 3 µM	2.8 ± 0.2 pg Pt/µg DNA	0.3 ± 0.1 ng Pt/10^6 cells	2.3 ± 0.3 ng Pt/10^6 cells	10 ± 3 ng Pt/10^6 cells	3.5 ± 0.6 µM	20 ± 2 µM	–	–	–
Cc1c(C)c2c3c4c1=CC=C[N]4[Pt]([Cl])([Cl])[N]3C=CC=2.N[C@H]1CCCC[C@@H]1N [complex 2, Pt^IV56MeSSCl2]	–	–	–	–	–	insignificant impact on the Δψm	2.1 ± 0.4 µM	1.6 ± 0.4 µM	1.5 ± 0.4 µM	5.9 ± 0.5 µM	2.9 ± 0.7 µM	1.9 ± 0.1 pg Pt/µg DNA	2.2 ± 0.2 ng Pt/10^6 cells	6.2 ± 0.3 ng Pt/10^6 cells	47 ± 2 ng Pt/10^6 cells	0.39 ± 0.01 µM	0.4 ± 0.08 µM	less efficient in inhibting artificial wound closing	–2.1 ± 0.2	markedly less effective
